From US9562031B1, “Phenethyldihydrobenzodioxolones and methods of use” (Sequoia Sciences, Inc., priority 2015, dated 2017) come the findings set out here.

Read-outs that look alike come from different tables or passages of the source.

In assay [1] the test system is M14 (amelanotic melanoma) cells. In words: antiproliferation assay (72 h, CELLTITER 96), M14. As to conditions: Homo sapiens. The assay is classed as cell-based, human. Here is the method:
(§1) All of the compounds shown in Table 3-Table 8 below were prepared synthetically as described in EXAMPLE I. The compounds were tested for their ability to inhibit the proliferation of human cancer cells in vitro as described in the following paragraph. Table 3-Table 8 list the IC50 values in the M14 and NCI-H460 human cancer cell lines. IC50 is defined as the concentration of compound necessary to achieve 50% of the maximum growth inhibition.
(§2) For the antiproliferation assay, NCI-H460 (large cell lung carcinoma) or M14 (amelanotic melanoma) cells were grown in RPMI-1640 with 10% FBS supplemented with L-glutamine and HEPES. Cells were seeded into 96-well plates at 5×10^2 to 5×10^4 cells/well and allowed to adhere overnight; the medium was then removed. A stock solution of test compound in DMSO was diluted in medium to generate a series of working solutions. Aliquots (100 μl) of the working solutions were then added to the appropriate test wells to expose cells to the final concentrations of compound in a total volume of 100 μl. Seven different concentrations were tested, with 2-5 wells per concentration. Camptothecin was used as a positive control; wells containing vehicle without compound were used as negative controls. Plates were kept for 72 h in a 37° C., 5% CO2 incubator. After incubation, viable cells were detected with the CELLTITER 96 AQueous Non-Radioactive Cell Proliferation Assay (Promega), and IC50 values were determined using GraphPad Prism 5 software.

For assay [2], the system named is NCI-H460 (large cell lung carcinoma) cells. The assay is described as follows: antiproliferation assay (72 h, CELLTITER 96), NCI-H460. It counts as cell-based, human. The settings on record: Homo sapiens, read-out: NCI-H460 IC50. Here is the method: as §1, §2

Turning to `C=CC[C@H]1C[C@]2([C@@H](C)Cc3ccc(OC)cc3)OCOC2=CC1=O` [Compound 25, (6S,7aR)-6-allyl-7a-((S)-1-(4-methoxyphenyl)propan-2-yl)-7,7a-dihydrobenzo[d][1,3]dioxol-5(6H)-one], the IC50 stood at 61 nM in assay [1] (Table 4) and 88 nM in assay [2] (NCI-H460, Table 4).
For `C=CC[C@H]1C[C@]2([C@@H](C)Cc3ccc(OC)c(C)c3)OCOC2=CC1=O` [Compound 27, (6S,7aR)-6-allyl-7a-((S)-1-(4-methoxy-3-methylphenyl)propan-2-yl)-7,7a-dihydrobenzo[d][1,3]dioxol-5(6H)-one] the same measures were 410 nM and 630 nM.
In the case of `C=CC[C@H]1C[C@]2([C@H](C)Cc3ccc(OC)c(CO)c3)OCOC2=CC1=O` [Compound 28, (6S,7aR)-6-allyl-7a-((R)-1-(3-(hydroxymethyl)-4-methoxyphenyl)propan-2-yl)-7,7a-dihydrobenzo[d][1,3]dioxol-5(6H)-one], the IC50 in assay [1] (Table 4) was 10000 nM; in assay [2] (NCI-H460, Table 4) it was 4200 nM.
Turning to `C=CC[C@H]1C[C@]2([C@@H](C)Cc3ccc(OC)c(C(=O)NC)c3)OCOC2=CC1=O` [Compound 30, 5-((S)-2-((3aR,5S)-5-allyl-6-oxo-3a,4,5,6-tetrahydrobenzo[d][1,3]dioxol-3a-yl)propyl)-2-methoxy-N-methylbenzamide], the IC50 in assay [1] (Table 4) was 1400 nM; in assay [2] (NCI-H460, Table 4), 1100 nM.
Regarding `C=CC[C@H]1C[C@]2([C@@H](C)Cc3ccc(OC)c(C#N)c3)OCOC2=CC1=O` [Compound 31, 5-((S)-2-((3aR,5S)-5-allyl-6-oxo-3a,4,5,6-tetrahydrobenzo[d][1,3]dioxol-3a-yl)propyl)-2-methoxybenzonitrile], the IC50 in assay [1] (Table 4) turned out to be 180 nM; in assay [2] (NCI-H460, Table 4), 340 nM.
On to `C=CC[C@H]1C[C@]2(C(C)Cc3ccc(OC)c(OC(C)=O)c3)OCOC2=CC1=O` (stereo partly drawn) [Compound 33, 5-(2-((3aR,5S)-5-allyl-6-oxo-3a,4,5,6-tetrahydrobenzo[d][1,3]dioxol-3a-yl)propyl)-2-methoxyphenyl acetate], for which the IC50 in assay [1] (Table 4) stood at 16 nM; in assay [2] (NCI-H460, Table 4) it was 110 nM.
For the molecule `C=CC[C@H]1C[C@]2(C(C)Cc3ccc(OC)c(N)c3)OCOC2=CC1=O` (stereo partly drawn) [Compound 34, (6S,7aR)-6-allyl-7a-(1-(3-amino-4-methoxyphenyl)propan-2-yl)-7,7a-dihydrobenzo[d][1,3]dioxol-5(6H)-one], the half-inhibitory concentration (IC50) in assay [1] (Table 4) was found to be 49 nM; in assay [2] (NCI-H460, Table 4), 180 nM.
Consider `C=CC[C@H]1C[C@]2([C@@H](C)Cc3ccc(OC)c(NC(C)=O)c3)OCOC2=CC1=O` [Compound 35, N-(5-((S)-2-((3aR,5S)-5-allyl-6-oxo-3a,4,5,6-tetrahydrobenzo[d][1,3]dioxol-3a-yl)propyl)-2-methoxyphenyl)acetamide], for which the IC50 in assay [1] (Table 4) was found to be 85 nM; in assay [2] (NCI-H460, Table 4) it was 310 nM.
For `C=CCNc1cc(CC(C)[C@]23C[C@H](CC=C)C(=O)C=C2OCO3)ccc1OC` (stereo partly drawn) [Compound 36, (6S,7aR)-6-allyl-7a-(1-(3-(allylamino)-4-methoxyphenyl)propan-2-yl)-7,7a-dihydrobenzo[d][1,3]dioxol-5(6H)-one], the IC50 in assay [1] (Table 4) was determined as 720 nM; in assay [2] (NCI-H460, Table 4) it was 1900 nM.
For `C=CC[C@H]1C[C@]2([C@@H](C)Cc3ccc(OC)c(Cl)c3)OCOC2=CC1=O` [Compound 38, (6S,7aR)-6-allyl-7a-((S)-1-(3-chloro-4-methoxyphenyl)propan-2-yl)-7,7a-dihydrobenzo[d][1,3]dioxol-5(6H)-one], in that order: 240 nM and 640 nM.
`C=CC[C@H]1C[C@]2([C@H](C)Cc3ccc(OC)c(Cl)c3)OCOC2=CC1=O` [Compound 39, (6S,7aR)-6-allyl-7a-((R)-1-(3-chloro-4-methoxyphenyl)propan-2-yl)-7,7a-dihydrobenzo[d][1,3]dioxol-5(6H)-one]: the IC50 in assay [1] (Table 4) amounted to 130 nM; in assay [2] (NCI-H460, Table 4), 420 nM.
For the molecule `C=CC[C@H]1C[C@]2(C(C)Cc3ccc(OCC)cc3)OCOC2=CC1=O` (stereo partly drawn) [Compound 40, (6S,7aR)-6-allyl-7a-(1-(4-ethoxyphenyl)propan-2-yl)-7,7a-dihydrobenzo[d][1,3]dioxol-5(6H)-one], the IC50 in assay [1] (Table 5) was 650 nM; in assay [2] (NCI-H460, Table 5), 2000 nM.
For `C=CC[C@H]1C[C@]2([C@@H](C)Cc3ccc(OC(F)(F)F)cc3)OCOC2=CC1=O` [Compound 41, (6S,7aR)-6-allyl-7a-((S)-1-(4-(trifluoromethoxy)phenyl)propan-2-yl)-7,7a-dihydrobenzo[d][1,3]dioxol-5(6H)-one], the IC50 in assay [1] (Table 5) was more than 20000 nM; in assay [2] (NCI-H460, Table 5), 3800 nM.
As to `C=CC[C@H]1C[C@]2([C@@H](C)Cc3ccc(N)c(F)c3)OCOC2=CC1=O` [Compound 42, (6S,7aR)-6-allyl-7a-((S)-1-(4-amino-3-fluorophenyl)propan-2-yl)-7,7a-dihydrobenzo[d][1,3]dioxol-5(6H)-one], the IC50 in assay [1] (Table 5) amounted to 810 nM; in assay [2] (NCI-H460, Table 5), 2500 nM.
On to `C=CC[C@H]1C[C@]2([C@H](C)Cc3ccc(NC)c(F)c3)OCOC2=CC1=O` [Compound 43, (6S,7aR)-6-allyl-7a-((R)-1-(3-fluoro-4-(methylamino)phenyl)propan-2-yl)-7,7a-dihydrobenzo[d][1,3]dioxol-5(6H)-one], for which the half-maximal inhibitory concentration (IC50) in assay [1] (Table 5) was determined as 64 nM; in assay [2] (NCI-H460, Table 5) it was 300 nM.
For the molecule `C=CC[C@H]1C[C@]2([C@H](C)Cc3ccc(N(C)C)c(F)c3)OCOC2=CC1=O` [Compound 46, (6S,7aR)-6-allyl-7a-((R)-1-(4-(dimethylamino)-3-fluorophenyl)propan-2-yl)-7,7a-dihydrobenzo[d][1,3]dioxol-5(6H)-one], the IC50 in assay [1] (Table 5) came to 640 nM; in assay [2] (NCI-H460, Table 5) it was 1400 nM.
For `C=CC[C@H]1C[C@]2([C@H](C)Cc3cc(F)c(N(C)C)cc3F)OCOC2=CC1=O` [Compound 47, (6S,7aR)-6-allyl-7a-((R)-1-(4-(dimethylamino)-2,5-difluorophenyl)propan-2-yl)-7,7a-dihydrobenzo[d][1,3]dioxol-5(6H)-one], in that order: 75 nM and 330 nM.
`C=CC[C@H]1C[C@]2([C@@H](C)Cc3cc(F)c(N(C)C)cc3F)OCOC2=CC1=O` [Compound 48, (6S,7aR)-6-allyl-7a-((S)-1-(4-(dimethylamino)-2,5-difluorophenyl)propan-2-yl)-7,7a-dihydrobenzo[d][1,3]dioxol-5(6H)-one]: the IC50 in assay [1] (Table 5) was determined as 70 nM; in assay [2] (NCI-H460, Table 5) it was 330 nM.
Turning to `C=CC[C@H]1C[C@]2([C@@H](C)Cc3ccccc3)OCOC2=CC1=O` [Compound 49], the IC50 was 5100 nM in assay [1] (Table 6) and 9700 nM in assay [2] (NCI-H460, Table 6).
As to `C=CC[C@H]1C[C@]2([C@@H](C)Cc3cccc(OC)c3)OCOC2=CC1=O` [Compound 50, (6S,7aR)-6-allyl-7a-((S)-1-(3-methoxyphenyl)propan-2-yl)-7,7a-dihydrobenzo[d][1,3]dioxol-5(6H)-one], the IC50 in assay [1] (Table 6) is 8800 nM; in assay [2] (NCI-H460, Table 6), 10600 nM.
`C=CC[C@H]1C[C@]2([C@H](C)Cc3ccc(OC)cc3C)OCOC2=CC1=O` [Compound 51, (6S,7aR)-6-allyl-7a-((R)-1-(4-methoxy-2-methylphenyl)propan-2-yl)-7,7a-dihydrobenzo[d][1,3]dioxol-5(6H)-one]: the IC50 in assay [1] (Table 6) was 280 nM; in assay [2] (NCI-H460, Table 6) it was 780 nM.
For `C=CC[C@H]1C[C@]2(C(C)Cc3ccc(OC)cc3OC)OCOC2=CC1=O` (stereo partly drawn) [Compound 52, (6S,7aR)-6-allyl-7a-(1-(2,4-dimethoxyphenyl)propan-2-yl)-7,7a-dihydrobenzo[d][1,3]dioxol-5(6H)-one] the same measures were 15000 nM and 15000 nM.
